Data as given in patent US11083770B2, “Medical preparation and method for enhancing tissue oxygenation in case of diabetic foot” (priority 2017, dated 2021).
Peptide text beside a SMILES is read from it.

Experiments:
[1] = system: white mongrel rats; conditions: rat, in vivo
[2] = system: white mongrel male mice; assay: Acute toxicity, Kerber's method, single intramuscular dose

N[C@@H](CCC(=O)O)C(=O)N[C@@H](Cc1c[nH]c2ccccc12)C(=O)O [L-Glu-L-Trp, L-glutamic-L-tryptophan acid] (H-Glu-Trp-OH; N-terminus and C-terminus assumed)
Side effects from long-term administration [1]: absence of side effects | Acute toxic reactions ([2]; doses exceeding the therapeutic dose by several thousand times): does not cause acute toxic reactions | Death of animals ([2]; mice, single i.m. 1, 2, 3, 4, 5 mg/kg, within 72 hours and further 14 days): Death of animals did not take place in any of the groups
